The test system of this assay is novel coronavirus SARS-COV-2 safe replicon system. As to the kind of experiment: microbe, parasite or virus in culture. Type of assay: cell-based. To be noted: Severe acute respiratory syndrome coronavirus 2, HEK-293T, read-out: IC50 (semi-inhibitory concentration), inhibition of cellular luciferase activity.

As for `CCC(CC)COC(=O)[C@H](C)N[P@](=O)(OC[C@H]1O[C@@](C#N)(c2ccc3c(N)ncnn23)[C@H](O)[C@@H]1O)Oc1ccccc1` [Remdesivir], the IC50 came out at 12.4 ± 1.08 µM.

As for `Cc1cccc(C)c1OCC(=O)N[C@@H](Cc1ccccc1)[C@@H](O)C[C@H](Cc1ccccc1)NC(=O)[C@H](C(C)C)N1CCCNC1=O` [Lopinavir], the IC50 is 6.79 ± 1.09 µM.

(Values after patent US20240192196A1, “NOVEL C[…]-CoV-2 SAFE REPLICON SYSTEM AND USE THEREOF” (SUN YAT-SEN UNIVERSITY, priority 2020, published 2024).)
